Assay results reported in patent US11419934B2, “Use of VDAS to enhance immunomodulating therapies against tumors” (Oncotelic Therapeutics, Inc., priority 2015, dated 2022).

Tests used:
[1] = tested on: T-cell mediated immune response; conditions: J. Immunol. 2007; 178: 1573-1580; cited from earlier work
[2] = tested on: EMT-6 mouse mammary tumor cells; test: antitumor activity in mice bearing subcutaneous EMT-6 mouse mammary tumor cells; format: in vivo
Description: A randomized trial was conducted to evaluate the antitumor activity of fosbretabulin tromethamine (CA4P) in mice bearing subcutaneous EMT-6 mouse mammary tumor cells in combination with other treatments. Other treatments include a combination treatment with anti-CTLA-4 antibody (ref: BE0131, Bioxcell; clone: 9H10; reactivity: mouse; isotype: Hamster IgG1; storage conditions: +4° C.).
CA4P and anti-CTLA-4 antibodies were prepared in phosphate buffered saline (PBS). CA4P was injected at the dose of 100 mg/kg. The anti-CTLA-4 antibody was injected at the dose of 10 mg/kg. The tested items were injected into the peritoneal cavity of mice (e.g. intraperitoneally, IP). The administration volume was 10 mL/kg (200 μL/mouse of 20 g) adjusted to the most recent individual body weight of the mice.
An EMT-6 cell line having an ATCC origin and a culture medium was used. The EMT-6 cell line was established from a transplantable murine mammary carcinoma that arose in a BALB/cCRGL mouse after implantation of a hyperplastic mammary alveolar nodule. EMT-6 tumor cells were grown as a monolayer at 37° C. in a humidified atmosphere (5% CO2, 95% air). The culture medium was RPMI 1640 containing 2 mM L-glutamine (ref: BE12-702F, Lonza, Verviers, Belgium) supplemented with 10% fetal bovine serum (ref: 3302, Lonza).
Healthy female Balb/C mice, 6-8 weeks old at reception, were used in the study. […]

COc1cc2c(c(OC)c1OC)-c1ccc(OP(=O)(O)O)cc1[C@@H](NC(C)=O)CC2 [ZD6126]
effect on T-cell mediated immune response [1]: may reduce T-cell mediated immune response

COc1ccc(/C=C\c2cc(OC)c(OC)c(OC)c2)cc1OP(=O)(O)O.NC(CO)(CO)CO [CA4P, fosbretabulin tromethamine]
average tumor size (tumor volume versus time, FIG. 1) ([2]; Balb/C mice, EMT-6 tumors, CA4P 100 mg/kg IP, anti-CTLA-4 10 mg/kg IP, TWx2): steadily increased
mice showing tumor regression ([2]; groups of 8 Balb/C mice, subcutaneous EMT-6 tumors, CA4P 100 mg/kg IP TWx2, anti-CTLA-4 10 mg/kg IP TWx2): One of the eight
